Results on one molecule are retold here after patent publication US20100247629A1, “Method for drug loading in liposomes” (Yissum Research Development Company of the Hebrew …, priority 2003, published 2010).

Structures are written as SMILES.

For series [1], the system named is M109-R. Description: In vitro uptake of doxorubicin into tumor cells. The format is cell-based, mouse. The following applies: 24 exposure. On the procedure: (§1) There is a greater drug accumulation in cells treated with lipo-dox-AG than in those treated with lipo-dox-AS.
(§2) Cellular accumulation of doxorubicin was assayed by a method similar to that described in Chambers, S. K. et al., Cancer Res., 49:6275-6279 (1989). […] At the end of the incubation, the cells were rinsed three times with PBS and the drug was extracted from the cells with 1 mL acidified isopropanol (0.075 M HCl in 90% isopropanol), for 20 hours at 4° C. Doxorubicin concentration was determined spectrofluorometrically using an excitation wavelength of 470 nm and an emission wavelength of 590 nm. The fluorescence intensity emitted was translated into doxorubicin-equivalents based on a doxorubicin standard curve, after readings of untreated background cells were subtracted.

A further series relates to C-26 cells. Description: In vivo therapeutic activity, C-26 tumor survival. The arrangement: species or system mice. Particulars: C-26 tumor i.p., 10 mg/kg i.v. five days after inoculation. The source says:
Untreated (control) mice died quickly with a median survival of 13 days (not shown).
In another study, mice were inoculated i.p. with C-26 cells (10^6 cells).

A short description of series [2]: Solubility and precipitation of doxorubicin in ammonium salt solutions. It counts as physicochemical. On the procedure:
The higher release rate is a result of using glucuronate as the balancing anion. […] In addition, doxorubicin precipitates at less than 2 mM concentration in the presence of sulfate ions, while a much higher concentration of doxorubicin is required for precipitation to occur in the presence of glucuronate ions. Accordingly, when glucuronate is the balancing anion, more of the therapeutic agent is in a soluble form and therefore it is more available for release from the liposomes. Further, the permeability of glucuronate through the liposomal membranes is very low, possibly due to its low pKa, its bulkiness and/or polarity, making it very efficient for maintaining the ammonium ion gradient for loading of the therapeutic agents.

Another series relates to C26. Put plainly: In vitro cytotoxicity (growth inhibition, methylene blue). It counts as cell-based, human. Particulars: continuous exposure 72 hours. The procedure: (§3) M109-R and KB-V cell lines are doxorubicin-resistant sublines of M109-S and KB, respectively. The cells were exposed continuously to the drug formulation for 72 hours following the experimental details described by Horowitz, et al., Biochimica et Biophysica Acta, 1109:203-209 (1992) and also in Example 2.
(§4) Cells for each line were exposed continuously to drug for 72 hours. Other experimental details were as described by Horowitz et al., Biochem Biophys Acta, 1109(2):203 (1992). Briefly, 5×10^3 cells from exponentially growing cultures in 200 μL aliquots were plated onto 96-well flat-bottom microtiter plates. […] For each 10-fold increase in drug concentration, six drug concentration points were tested. Each test was performed in triplicate wells and in two parallel plates. The cells were treated continuously for 72 hours. The cultures were fixed by the addition of 50 μL 2.5% glutaraldehyde to each well for 10 minutes. The plates were washed three times with de-ionized water, once with 0.1 M borate buffer (pH 8.5) and then stained for 60 minutes with 100 μL methylene blue (1% in 0.1 M buffer borate, pH 8.5) at room temperature. The plates were rinsed in five baths of de-ionized water to remove non-cell bound dye and were then dried. The dye was extracted with 200 μL 0.1 M HCl for 60 min at 37° C. and the optical density was determined using a microplate spectrophotometer.
(§5) The growth rate was calculated by dividing the doubling times of drug-treated cells with those of the control cells.

The test system of series [3] is KB-V. The description is as above. The format is cell-based, human. The following applies: KB-V (doxorubicin-resistant); continuous exposure 72 hours. On the procedure: as §3, §4, §5
Series [4] deals with KB. The series is described as above. It counts as cell-based, human. Particulars: continuous exposure 72 hours. The procedure: as §3, §4, §5
Series [5] has as its system KB-V. Put plainly: In vitro uptake of doxorubicin into tumor cells. The format is cell-based, human. On the procedure: as §1, §2
In series [6] the test system is KB. Put plainly: In vitro uptake of doxorubicin into tumor cells. The format is cell-based, human. The procedure:
as §1, §2

The test system of the next series is M109-S. Description: In vitro cytotoxicity (growth inhibition, methylene blue). Particulars: continuous exposure 72 hours. It counts as cell-based, mouse. On the procedure:
as §3
as §4, with “The plates were rinsed in five baths of de-ionized water to remove non-cell bound dye and were then dried.” left out
as §5

For series [7], the system named is M109-R. The description is as above. It counts as cell-based, mouse. The following applies: M109-R (doxorubicin-resistant); continuous exposure 72 hours. The procedure: as §3
as §4, with “The plates were rinsed in five baths of de-ionized water to remove non-cell bound dye and were then dried.” left out
as §5

Broadly, the IC50 is the concentration that gives 50% inhibition. A high value points to lower potency.

Take `COc1cccc2c1C(=O)c1c(O)c3c(c(O)c1C2=O)C[C@@](O)(C(=O)CO)C[C@@H]3O[C@H]1C[C@H](N)[C@H](O)[C@H](C)O1` [free doxorubicin, doxorubicin]: the “Doxorubicin Uptake” value in the series on M109-R [1] is listed as 80 (3) ng DOX/10^6 cells; with KB-V [5] (1 hr exposure), 311 (22) ng DOX/10^6 cells; with KB-V [5] (5 hr exposure), 931 (21) ng DOX/10^6 cells; with KB [6] (1 hr exposure), 426 (33) ng DOX/10^6 cells; with KB [6] (5 hr exposure), 937 (46) ng DOX/10^6 cells; with KB [6] (24 hr exposure) it was 840 (15) ng DOX/10^6 cells. For the same molecule, the “increase in mean survival time over control” value in the series on C-26 cells came to 4 days. In the series on C-26 cells, this molecule showed a mean survival time of 17 days. Further, the “solubility in 250 mM ammonium glucuronate relative to 250 mM ammonium sulfate” value in series [2] (250 mM AG solution vs 250 mM AS solution) is “approximately 100 fold”. For the same molecule, the “concentration at which doxorubicin precipitates” value in series [2] (in the presence of sulfate ions) was “less than 2 mM”. Besides, the IC50 in the series with C26 turned out to be 0.96 µM; in the series on KB-V [3], 0.69 µM; with KB [4], 0.04 µM; in the series with M109-S, 0.56 µM; in the series with M109-R [7] it was 2 µM.
